Assays:
PBMC = experiment: FITC-labeled PIF binding to PBMC subpopulations (flow cytometry); parameters: species or system human; conditions: PBMC within 24 hrs of PHA activation
Protocol: Expression of PIF-1(15) (SEQ ID NO:1), receptor following PHA induced PBMC proliferation CD-4 T cells; CD-8 T cells; NK cell and B cells (unstimulated-top); (PHA stimulated-bottom). Flow cytometry analysis of PBMC following exposure to FITC sPIF-1(15) (SEQ ID NO:13) % expression was determined in PBMC subtypes before and after exposure to 1 ug/ml PHA for 24 hours.
Human PBMC were isolated by the Ficoll method. FITC-labeled nPIF-115 (SEQ ID NO: 1) and (FITC)-labeled scrPIF-1 (SEQ ID NO:5) and match-size irrelevant peptide (FITC)-labeled negative controls negPIF-1(15) (SEQ ID NO:11), were dissolved in PBS at concentrations ranging from 0.75 to 48.19 μM, and were incubated with 500,000 lymphocytes for 1 h at room temperature. The cells were washed 6 times with PBS and resuspended in 500 μl of the same buffer. T-cells and monocytes identification was performed in independent experiments by incubation with anti-CD3 and anti-CD14 antibody-phycoerithryn (PE) labeled. nPIF-115 (SEQ ID NO: 1) binding to PBMC was determined by flow cytometry. In addition, rosettes formed by T cell-platelets were detected by flow cytometry using anti-CD3 antibody-PE and anti-CD41a antibody-FITC (all antibodies were from Pharmingen Inc.).
Using flow cytometry fluoroscein-labeled sPIF-115 (SEQ ID NO: 13) binding to immune cells was examined on resting PBMC.

mouse splenocytes = experiment: FITC peptide binding to mouse splenocytes with 100 fold excess unlabeled peptide; parameters: species or system C57Bl/6 mice; conditions: 300 nM FITC peptide, 100 fold excess unlabeled PIF
Protocol: Virgin female C57Bl/6 mice were sacrificed and spleen cells were isolated and placed in AIM V culture media with 300 nM FITC PIF-1 (15)+/−100 fold excess unlabeled PIF. Following incubation cells were placed in a flow cytometry and the percentage of cells stained examined.
Splenocytes from virgin female C57BL/6 mice were stained with 300 nM of PIF-1-FITC or scrPIF-1-FITC. Filled histograms indicated PIF-1-FITC or scrPIF-1-FITC alone. Empty histograms represent PIF-1-FITC or scrPIF-1-FITC staining in the presence of 100-fold excess of corresponding unlabeled peptide. Histograms represent both monocytes and lymphocytes according to scatter gating.
Cells were evaluated using flow cytometry determining labeled cells population Filled histograms indicate PIF-FITC or scrPIF-FITC alone. […] Empty histograms represent PIF-FITC or scrPIF-FITC staining in the presence of 100-fold excess of corresponding unlabeled peptide. Histograms represent both monocytes and lymphocytes according to scatter gating.

[1] = Whole body distribution of FITC labeled PIF-1 after IV and IP injection; type: in vivo, rats
Protocol: In a further experiment, PIF presence in the spleen was confirmed in vivo, In addition, PIF presence in the cecum, bone marrow and uterus was determined. Adult female rats were injected FITC labeled PIF-1 500 nM in 100 ul volume IV and IP (Eric Solon QPS Inc). 5 and 30 minutes later rats were sacrificed and snap frozen in hexane embedded in frozen media. Whole body 40 um cryo sectioned were obtained and scaaned with a 9140 Typhoon bioimage scanner at a FITC excitation length.

dissociation of FITC PIF from the PIF receptor by unlabeled peptide (mouse splenocytes): > 90%
Substance: FITC sPIF-1(15): sPIF-1(15) labeled on N-terminus with fluorescein isothyocyanate via b-alanine spacer
B cells positive for fluorescent PIF binding (PBMC): > 90% | T lymphocytes positive for fluorescent PIF binding (PBMC): 60-80% | IP pick up ([1]; 500 nM in 100 ul IP, 5 and 30 minutes): slower with major collection in the cecum | organs with specific pick up ([1]; 500 nM in 100 ul IV, 5 and 30 minutes): spleen, bone marrow and uterus | elimination ([1]; IV injected, FIG. 19): rapid elimination by the kidney

Source: patent US7723289B2, “PIF tetrapeptides” (BioIncept, LLC, priority 2003, dated 2010)
